Our source for the IC90 values is patent US12054494B2, “Compound with anticancer activity” (KYOWA KIRIN CO., LTD., priority 2018, dated 2024).

The experiment has as its system SU-DHL-4 cells. Description: Inhibitory effect on cell viability (Cell Counting Kit-8). In kind it is cell-based. The settings on record: Homo sapiens, 72 hours culture with test compound, concentration showing 90% inhibition rate of cell viability. How it is done: Inhibitiory Effect on Cell Viability
SU-DHL-4 cells (Code No. ACC 495, Deutsche Sammlung von Mikroorganismen and Zellkulturen GmbH) were cultured at 37° C. using a carbon dioxide incubator (95% air, 5% CO2) in RPMI1640 medium (Code No. 11875-093, Thermo Fisher Scientific) in which inactivated fetal bovine serum (FBS: Code No. 10099-148, Thermo Fisher Scientific) in an amount to give a final concentration of 10 vol % and penicillin/streptomycin solution (PS: Code No. 15140-122, Thermo Fisher Scientific) in an amount to give a final concentration of 1 vol % were added. The cells were passaged twice a week at a volume of 20-40 mL so as to maintain a cell concentration of 1×10^6 cells/mL or less.
The cultured SU-DHL-4 cells were seeded at 2000 cells/well in a transparent 384-well plate (Code No. 781182, Greiner bio-one). After seeding, the cells were precultured at 37° C. in a carbon dioxide gas incubator for 18 to 25 hours. Next, 1, 0.1 or 0.01 mmol/L DMSO solution of the test compound was prepared and a 9-step dilution series were prepared so that the concentration will be 200 times the final concentration in the RPMI1640 medium containing the above FBS and PS, and 1/200 volume of the dilution series were added to each well. At this time, the final concentration of DMSO was adjusted to be 0.1 vol %. After adding the test compound, the cells were cultured at 37° C. in a carbon dioxide gas incubator for 72 hours. Next, 0.020 mL of Cell Counting Kit-8 (Code No. CK04, DOJINDO) solution diluted 2-fold or 4-fold with phosphate buffered saline (PBS) was added to each well. Color reaction was carried out in a carbon dioxide gas incubator at 37° C. for 2 to 3 hours, and the absorbance at a wavelength of 450 nm was measured using SpectraMax 340PC (Molecular Devices). The inhibition rate of cell viability was calculated by the following formula, and the concentration of the test compound (IC90 value) showing a 90% inhibition rate of cell viability was calculated. Inhibition rate of cell viability (%)=100−(A−B)/(C−B)×100 • A: Absorbance of a well containing test compound • B: Absorbance of a well without addition of cells • C: Absorbance of a well without addition of test compound
(Tetrazolium dyes change colour on reduction, which living cells bring about.)

In the case of `CCC(=O)N1c2ccccc2[C@H](Nc2ccc(C(=O)NC3CCN(C(=O)c4ccc(N[C@@H]5C[C@H](C)N(C(=O)CC)c6ccccc65)cc4)CC3)cc2)C[C@@H]1C` (relative stereo) [Compound 1c, 4-{[(2S*,4R*)-2-Methyl-1-propionyl-1,2,3,4-tetrahydroquinolin-4-yl]amino}-N-[1-(4-{[(2S*,4R*)-2-methyl-1-propionyl-1,2,3,4-tetrahydroquinolin-4-yl]amino}benzoyl)piperidin-4-yl]benzamide], the 90% effect level (IC90) was put at 7.85 nM.

Regarding `CCC(=O)N1c2ccccc2[C@H](Nc2ccc(C(=O)NC3CN(C(=O)c4ccc(N[C@@H]5C[C@H](C)N(C(=O)CC)c6ccccc65)cc4)C3)cc2)C[C@@H]1C` (relative stereo) [Compound 1g, 4-{[(2S*,4R*)-2-Methyl-1-propionyl-1,2,3,4-tetrahydroquinolin-4-yl]amino}-N-[1-(4-{[(2S*,4R*)-2-methyl-1-propionyl-1,2,3,4-tetrahydroquinolin-4-yl]amino}benzoyl)azetidin-3-yl]benzamide], the IC90 came out at 10.6 nM.

Take `CCC(=O)N1c2ccccc2[C@H](Nc2ccc(NC(=O)CNC(=O)c3ccc(N[C@@H]4C[C@H](C)N(C(=O)CC)c5ccccc54)cc3)cc2)C[C@@H]1C` (relative stereo) [Compound 2a, 4-{[(2S*,4R*)-2-Methyl-1-propionyl-1,2,3,4-tetrahydroquinolin-4-yl]amino}-N-{2-[(4-{[(2S*,4R*)-2-methyl-1-propionyl-1,2,3,4-tetrahydroquinolin-4-yl]amino}phenyl)amino]-2-oxoethyl}benzamide]: it took 2.12 nM to reach the 90% level (IC90).

`CCC(=O)N1c2ccccc2[C@H](Nc2ccc(NC(=O)[C@@H](C)NC(=O)c3ccc(N[C@@H]4C[C@H](C)N(C(=O)CC)c5ccccc54)cc3)cc2)C[C@@H]1C` (relative stereo) [Compound 2c, 4-{[(2S,4R)-2-Methyl-1-propionyl-1,2,3,4-tetrahydroquinolin-4-yl]amino}-N-{(R)-1-[(4-{[(2S*,4R*)-2-methyl-1-propionyl-1,2,3,4-tetrahydroquinolin-4-yl]amino}phenyl)amino]-1-oxopropan-2-yl}benzamide] returned a concentration for an effect of 90% (IC90) of 29.1 nM.

`CCC(=O)N1c2ccccc2[C@H](Nc2ccc(NC(=O)[C@H](C)NC(=O)c3ccc(N[C@@H]4C[C@H](C)N(C(=O)CC)c5ccccc54)cc3)cc2)C[C@@H]1C` (relative stereo) [Compound 2d, 4-{[(2S,4R)-2-Methyl-1-propionyl-1,2,3,4-tetrahydroquinolin-4-yl]amino}-N-{(S)-1-[(4-{[(2S*,4R*)-2-methyl-1-propionyl-1,2,3,4-tetrahydroquinolin-4-yl]amino}phenyl)amino]-1-oxopropan-2-yl}benzamide] displayed a concentration for an effect of 90% (IC90) of 26.6 nM.

`CCC(=O)N1c2ccccc2[C@H](Nc2ccc(NC(=O)[C@@H](NC(=O)c3ccc(N[C@@H]4C[C@H](C)N(C(=O)CC)c5ccccc54)cc3)C(C)C)cc2)C[C@@H]1C` (relative stereo) [Compound 2e, N-{(S)-3-Methyl-1-[(4-{[(2S*,4R*)-2-methyl-1-propionyl-1,2,3,4-tetrahydroquinolin-4-yl]amino}phenyl)amino]-1-oxobutan-2-yl}-4-{[(2S,4R)-2-methyl-1-propionyl-1,2,3,4-tetrahydroquinolin-4-yl]amino}benzamide] showed a 90% effect concentration (IC90) of 16.3 nM.

In turn, `CCC(=O)N1c2ccccc2[C@H](Nc2ccc(NC(=O)CCNC(=O)c3ccc(N[C@@H]4C[C@H](C)N(C(=O)CC)c5ccccc54)cc3)cc2)C[C@@H]1C` (relative stereo) [Compound 2f, 4-{[(2S,4R)-2-Methyl-1-propionyl-1,2,3,4-tetrahydroquinolin-4-yl]amino}-N-{3-[(4-{[(2S*,4R*)-2-methyl-1-propionyl-1,2,3,4-tetra hydroquinolin-4-yl]amino}phenyl)amino]-3-oxopropyl}benzamide] came in with an IC90 of 0.23 nM.

Molecule `CCC(=O)N1c2ccccc2[C@H](Nc2ccc(NC(=O)C3CCN(C(=O)c4ccc(N[C@@H]5C[C@H](C)N(C(=O)CC)c6ccccc65)cc4)CC3)cc2)C[C@@H]1C` (relative stereo) [Compound 2g, 1-(4-{[(2S,4R)-2-Methyl-1-propionyl-1,2,3,4-tetrahydroquinolin-4-yl]amino}benzoyl)-N-(4-{[(2S*,4R*)-2-methyl-1-propionyl-1,2,3,4-tetrahydroquinolin-4-yl]amino}phenyl)piperidine-4-carboxamide] displayed an IC90 of 0.63 nM.

Molecule `CCC(=O)N1c2ccccc2[C@H](Nc2ccc(NC(=O)C3CN(C(=O)c4ccc(N[C@@H]5C[C@H](C)N(C(=O)CC)c6ccccc65)cc4)C3)cc2)C[C@@H]1C` (relative stereo) [Compound 2h, 1-(4-{[(2S,4R)-2-Methyl-1-propionyl-1,2,3,4-tetrahydroquinolin-4-yl]amino}benzoyl)-N-(4-{[(2S*,4R*)-2-methyl-1-propionyl-1,2,3,4-tetrahydroquinolin-4-yl]amino}phenyl)azetidine-3-carboxamide] came in with an IC90 of 0.03 nM.

Take `CCC(=O)N1c2ccccc2[C@H](Nc2ccc(NC(=O)[C@@H]3CCN(C(=O)c4ccc(N[C@@H]5C[C@H](C)N(C(=O)CC)c6ccccc65)cc4)C3)cc2)C[C@@H]1C` (relative stereo) [Compound 2i, (R)-1-(4-{[(2S,4R)-2-Methyl-1-propionyl-1,2,3,4-tetrahydroquinolin-4-yl]amino}benzoyl)-N-(4-{[(2S*,4R*)-2-methyl-1-propionyl-1,2,3,4-tetrahydroquinolin-4-yl]amino}phenyl)pyrrolidine-3-carboxamide]: the 90% effect concentration (IC90) is 1.84 nM.

`CCC(=O)N1c2ccccc2[C@H](Nc2ccc(NC(=O)CC(C)CC(=O)Nc3ccc(N[C@@H]4C[C@H](C)N(C(=O)CC)c5ccccc54)cc3)cc2)C[C@@H]1C` (relative stereo) [Compound 4b, 3-Methyl-N^1,N^5-bis(4-{[(2S*,4R*)-2-methyl-1-propionyl-1,2,3,4-tetrahydroquinolin-4-yl]amino}phenyl)pentanediamide] yielded a 90% effect concentration (IC90) of 5.87 nM.

Molecule `CCC(=O)N1c2ccccc2[C@H](Nc2ccc(NS(=O)(=O)c3cccc(NC(=O)c4ccc(N[C@@H]5C[C@H](C)N(C(=O)CC)c6ccccc65)cc4)c3)cc2)C[C@@H]1C` (relative stereo) [Compound 4c, 4-{[(2S,4R)-2-Methyl-1-propionyl-1,2,3,4-tetrahydroquinolin-4-yl]amino}-N-{3-[N-(4-{[(2S*,4R*)-2-methyl-1-propionyl-1,2,3,4-tetrahydroquinolin-4-yl]amino}phenyl)sulfamoyl]phenyl}benzamide] gave an IC90 of 4.03 nM.

For the molecule `CCC(=O)N1c2ccccc2[C@H](Nc2ccc(NC(=O)CCSc3ccc(N[C@@H]4C[C@H](C)N(C(=O)CC)c5ccccc54)cc3)cc2)C[C@@H]1C` (relative stereo) [Compound 4e, N-(4-{[(2S*,4R*)-2-Methyl-1-propionyl-1,2,3,4-tetrahydroquinolin-4-yl]amino}phenyl)-3-[(4-{[(2S,4R)-2-methyl-1-propionyl-1,2,3,4-tetrahydroquinolin-4-yl]amino}phenyl)thio]propanamide], the IC90 worked out at 0.34 nM.

`CCC(=O)N1c2ccccc2[C@H](Nc2ccc(NC(=O)Cc3cn(-c4ccc(N[C@@H]5C[C@H](C)N(C(=O)CC)c6ccccc65)cc4)nn3)cc2)C[C@@H]1C` (relative stereo) [Compound 6i, N-(4-(((2S*,4R*)-2-Methyl-1-propionyl-1,2,3,4-tetrahydroquinolin-4-yl)amino)phenyl)-2-(1-(4-(((2S*,4R*)-2-methyl-1-propionyl-1,2,3,4-tetrahydroquinolin-4-yl)amino)phenyl)-1H-1,2,3-triazol-4-yl)acetamide]: the concentration for an effect of 90% (IC90) turned out to be 0.11 nM.

As for `CCC(=O)N1c2ccccc2[C@H](Nc2ccc(NC(=O)NCCNC(=O)c3ccc(N[C@@H]4C[C@H](C)N(C(=O)CC)c5ccccc54)cc3)cc2)C[C@@H]1C` (relative stereo) [Compound 6l, 4-(((2S,4R)-2-Methyl-1-propionyl-1,2,3,4-tetrahydroquinolin-4-yl)amino)-N-(2-(3-(4-(((2S*,4R*)-2-methyl-1-propionyl-1,2,3,4-tetrahydroquinolin-4-yl)amino)phenyl)ureido)ethyl)benzamide], the IC90 is 0.35 nM.

`CCC(=O)N1c2ccccc2[C@H](Nc2ccc(NC(=O)N3CCN(C(=O)c4ccc(N[C@@H]5C[C@H](C)N(C(=O)CC)c6ccccc65)cc4)CC3)cc2)C[C@@H]1C` (relative stereo) [Compound 6m, 4-(4-(((2S,4R)-2-Methyl-1-propionyl-1,2,3,4-tetrahydroquinolin-4-yl)amino)benzoyl)-N-(4-(((2S*,4R*)-2-methyl-1-propionyl-1,2,3,4-tetrahydroquinolin-4-yl)amino)phenyl)piperazine-1-carboxamide] returned an IC90 of 0.12 nM.

For orientation: IC90 means the point of the concentration-response curve where the effect stands at 90%. Low values mean greater potency, high ones weaker potency.
